“Also recorded” adds a separate entry of the source. Like-named read-outs stand apart in the source and are kept apart here. Ends that are not written are not given here.
Key:
[1] = target: T1, heteromeric hSK1:hIKCa channel (Homo sapiens, UniProt O15554+Q92952); experiment: Ca2+ activation of ramp currents, inside-out macropatches, heteromeric hSK1:hIKCa; assay type: cell-based
T1 construct: expressed in transfected cells; host or cells: tsA201 cells
Method: (§1) TsA201 cells were maintained in culture at 37°C and 5% CO2, being grown in culture flasks with Dulbecco's Modified Eagle Medium (DMEM) supplemented with foetal bovine serum (10%) and penicillin and streptomycin (1%). Cells were passaged at ~80% confluence. The cDNA of KCa channel subunits and one encoding expression of enhanced green fluorescent protein (eGFP) (using pcDNA3.1 or equivalent vectors) were transfected into tsA201 cells using polyethylenimine (PEI) (Merck/Sigma, UK) at a concentration of 0.2 mg/mL (Higham et al., [2019]). Cells were used 48 h after transfection. All mutations were carried out using QuikChange II XL (Stratagene).
(§2) Sensitivity of expressed channels to Ca^2+ was assessed using inside‐out macropatches excised from eGFP‐positive cells, using electrodes of resistance 1–3 MΩ. A range of free Ca^2+ concentrations was used, from 30 nM to 3 μM in half log10 increments. We used external solution to bath inside‐out patches, with the free Ca^2+ concentration calculated to maintain free Mg^2+ at 1 mM. Solutions were designed using REACT, with pH adjusted to 7.4 and osmolarity between 280 and 310 mOsm.

hSK1 channel [2] = experiment: Ca2+ activation of ramp currents, inside-out macropatches, homomeric hSK1; assay type: cell-based, human
Method: as §1, §2

hIKCa channel = target: T2, hIKCa channel (Homo sapiens, UniProt O15554); experiment: Ca2+ activation of ramp currents, inside-out macropatches, homomeric hIKCa; assay type: cell-based
T2 construct: expressed in transfected cells; host or cells: tsA201 cells
Method: as §1, §2

[3] = system: SK channels native to CA1 hippocampal neurons; parameters: method as in Hirschberg et al., 1999; settings: ref Hirschberg et al., 1999; read-out: EC50 for activation of SK channels native to CA1 hippocampal neurons; cited from earlier work
[4] = system: slow AHP of hippocampal neurons; settings: ref King et al., 2015, Shah & Haylett, 2000, Church et al., 2019, Higham et al.; cited from earlier work
[5] = target: T1, heteromeric hSK1:hIKCa channel; experiment: Outside-out patch current inhibition, heteromeric wildtype hSK1:hIKCa expressed in tsA201 cells; assay type: cell-based; settings: for extent of inhibition of heteromeric hSK1:hIKCa current: concentration-inhibition relationship
Method: as §1
(§3) Outside‐out patches were excised from eGFP‐positive cells, pulled from thick‐walled (1.5 mm OD × 0.86 mm ID) borosilicate glass capillaries (Harvard Apparatus, UK), fire‐polished and filled with internal solution containing in mM: 97 K aspartate, 20 KCl, 1.5 Na2ATP, 10 EGTA, 9.65 CaCl2 (1 μM free Ca^2+), 10 HEPES Na, 2.5 MgCl2 (pH 7.4 and osmolarity between 280 and 310 mOsm). Cells were bathed in, and patches excised into, an external solution containing in mM: 97 K Aspartate, 30 KCl, 10 HEPES Na^+, 6.19 CaCl2 (1 μM free Ca^2+), 1.44 MgCl2 (pH 7.4, 280–310 mOsm). Free Ca^2+ concentrations were calculated using REACT (University of Strathclyde). […] Current was measured using an Axopatch 200A amplifier, low‐pass filtered (cut off 1 kHz, Bessel, Frequency Devices) and acquired at 10 kHz (Pulse, HEKA). All recordings were made at room temperature. Apamin (Sigma‐Aldrich, UK), 6,12,19,20,25,26‐hexahydro‐5,27:13,18:21,24‐trietheno‐11,7‐metheno‐7H‐dibenzo [b,n] […] UCL1684 was dissolved at a stock concentration of 100 μM in DMSO, and aliquots were stored at −20°C. Finally, apamin was dissolved in distilled water at a stock concentration of 100 μM, and aliquots were stored at −20°C. All compounds were defrosted on the day of recording, with aliquots only thawed once, and desired concentrations were prepared by dilution in external solution.
(§4) Biphasic concentration–inhibition relationships were fitted using the following equation: I/Icontrol=Amin+Afrac−Amin/1+10^LogIC50,a−X×nH,a +Amax−Amin/1+10^LogIC50,b−X×nH,b where A frac is current amplitude at the maximum of the high‐sensitivity component I frac /I cont , IC 50,a is the IC50 of the high‐sensitivity component, n H,a is the Hill coefficient of the high‐sensitivity component, IC 50,b is the IC50 of the low‐sensitivity component, and n H,b is the Hill coefficient of the low‐sensitivity component. […] Statistical significance was determined using appropriate tests that are stated in the figure legend.

hIKCa[H389E] channel = target: T3, hIKCa[H389E] channel (Homo sapiens, UniProt O15554, H389E); experiment: Outside-out patch current inhibition, homomeric hIKCa[H389E]; assay type: cell-based; settings: TRAM-34 10 μM
T3 construct: expressed in transfected cells; host or cells: tsA201 cells
Method: as §1
(§5) Outside‐out patches were excised from eGFP‐positive cells, pulled from thick‐walled (1.5 mm OD × 0.86 mm ID) borosilicate glass capillaries (Harvard Apparatus, UK), fire‐polished and filled with internal solution containing in mM: 97 K aspartate, 20 KCl, 1.5 Na2ATP, 10 EGTA, 9.65 CaCl2 (1 μM free Ca^2+), 10 HEPES Na, 2.5 MgCl2 (pH 7.4 and osmolarity between 280 and 310 mOsm). […] Free Ca^2+ concentrations were calculated using REACT (University of Strathclyde). […] Current was measured using an Axopatch 200A amplifier, low‐pass filtered (cut off 1 kHz, Bessel, Frequency Devices) and acquired at 10 kHz (Pulse, HEKA). […]

hIKCa (WT) channel = target: T4, hIKCa (WT) channel (Homo sapiens, UniProt O15554); experiment: Outside-out patch current inhibition, homomeric wildtype hIKCa expressed in tsA201 cells; assay type: cell-based
T4 construct: expressed in transfected cells; host or cells: tsA201 cells
Method: as §1, §5

[6] = target: hSK1:hIKCa[H389E] channels (Homo sapiens, UniProt O15554+Q92952, H389E); experiment: Outside-out patch current inhibition, cells co-expressing hSK1 and hIKCa[H389E]; assay type: cell-based
Method: as §1, §3, §4

[7] = system: hSK1[S348T + A371V] channel; experiment: Outside-out patch current inhibition, homomeric pore mutant hSK1[S348T + A371V]; assay type: cell-based, human
Method: as §1, §5

hSK1 channel [8] = system: hSK1 channel; parameters: method as in Higham et al., 2019; settings: ref Higham et al., 2019; cited from earlier work
[9] = target: hSK1[S348T + A371V]:hIKCa heteromeric channel (Homo sapiens, UniProt O15554+Q92952, A355V/S330T); experiment: Outside-out patch current inhibition, heteromeric hSK1[S348T + A371V]:hIKCa; assay type: cell-based
Method: as §1, §5

[10] = target: T1, heteromeric hSK1:hIKCa channel; settings: ref Higham et al., 2019, Church et al.; cited from earlier work
hSK1 channel [11] = experiment: Outside-out patch current inhibition, homomeric hSK1; assay type: cell-based, human
Method: as §1
Outside‐out patches were excised from eGFP‐positive cells, pulled from thick‐walled (1.5 mm OD × 0.86 mm ID) borosilicate glass capillaries (Harvard Apparatus, UK), fire‐polished and filled with internal solution containing in mM: 97 K aspartate, 20 KCl, 1.5 Na2ATP, 10 EGTA, 9.65 CaCl2 (1 μM free Ca^2+), 10 HEPES Na, 2.5 MgCl2 (pH 7.4 and osmolarity between 280 and 310 mOsm). Cells were bathed in, and patches excised into, an external solution containing in mM: 97 K Aspartate, 30 KCl, 10 HEPES Na^+, 6.19 CaCl2 (1 μM free Ca^2+), 1.44 MgCl2 (pH 7.4, 280–310 mOsm). Free Ca^2+ concentrations were calculated using REACT (University of Strathclyde). […] Current was measured using an Axopatch 200A amplifier, low‐pass filtered (cut off 1 kHz, Bessel, Frequency Devices) and acquired at 10 kHz (Pulse, HEKA). […]
as §4

[12] = system: hSK1:hIKCa[H389E] channels; experiment: Outside-out patch current inhibition, cells co-expressing hSK1 and hIKCa[H389E]; assay type: cell-based, human; settings: biphasic fit, hSK1:hIKCa[H389E]-mediated current
Method: as §1, §3, §4

[13] = concentration-inhibition relationship

T1 sequence (O15554 whole entry): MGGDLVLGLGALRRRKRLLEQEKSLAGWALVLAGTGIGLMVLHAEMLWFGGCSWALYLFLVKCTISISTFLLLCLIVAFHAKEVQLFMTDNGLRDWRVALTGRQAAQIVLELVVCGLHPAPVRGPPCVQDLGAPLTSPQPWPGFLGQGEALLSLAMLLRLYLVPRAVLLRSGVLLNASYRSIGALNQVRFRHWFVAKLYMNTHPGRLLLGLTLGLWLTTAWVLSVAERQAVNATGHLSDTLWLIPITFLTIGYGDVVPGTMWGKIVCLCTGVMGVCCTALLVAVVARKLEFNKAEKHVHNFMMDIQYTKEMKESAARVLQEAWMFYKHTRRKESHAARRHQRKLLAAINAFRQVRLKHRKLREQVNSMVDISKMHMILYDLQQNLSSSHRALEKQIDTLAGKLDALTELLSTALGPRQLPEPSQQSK
T1 sequence (Q92952 other isoform, or with tags, fused parts or gaps): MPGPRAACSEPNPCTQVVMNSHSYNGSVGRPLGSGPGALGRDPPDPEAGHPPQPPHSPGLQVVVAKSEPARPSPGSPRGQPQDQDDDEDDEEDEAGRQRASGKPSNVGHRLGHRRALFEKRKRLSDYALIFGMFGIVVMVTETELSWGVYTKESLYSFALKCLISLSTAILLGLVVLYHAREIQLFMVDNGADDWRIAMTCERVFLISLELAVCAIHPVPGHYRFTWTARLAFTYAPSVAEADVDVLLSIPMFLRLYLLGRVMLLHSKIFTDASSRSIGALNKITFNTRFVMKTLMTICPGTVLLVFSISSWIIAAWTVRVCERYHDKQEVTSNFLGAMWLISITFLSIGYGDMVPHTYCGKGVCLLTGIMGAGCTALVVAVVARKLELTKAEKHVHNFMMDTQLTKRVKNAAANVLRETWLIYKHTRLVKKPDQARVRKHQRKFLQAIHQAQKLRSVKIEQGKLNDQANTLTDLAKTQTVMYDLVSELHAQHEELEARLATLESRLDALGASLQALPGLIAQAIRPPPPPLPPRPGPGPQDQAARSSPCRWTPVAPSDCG
T2 sequence (O15554 whole entry): as the sequence (O15554 whole entry) above
Sequence of hSK1:hIKCa[H389E] channels (Homo sapiens, UniProt O15554+Q92952, H389E) (O15554 whole entry H389E): as the sequence (O15554 whole entry) above, with H389E counted along it
Sequence of hSK1:hIKCa[H389E] channels (Homo sapiens, UniProt O15554+Q92952, H389E) (Q92952 whole entry): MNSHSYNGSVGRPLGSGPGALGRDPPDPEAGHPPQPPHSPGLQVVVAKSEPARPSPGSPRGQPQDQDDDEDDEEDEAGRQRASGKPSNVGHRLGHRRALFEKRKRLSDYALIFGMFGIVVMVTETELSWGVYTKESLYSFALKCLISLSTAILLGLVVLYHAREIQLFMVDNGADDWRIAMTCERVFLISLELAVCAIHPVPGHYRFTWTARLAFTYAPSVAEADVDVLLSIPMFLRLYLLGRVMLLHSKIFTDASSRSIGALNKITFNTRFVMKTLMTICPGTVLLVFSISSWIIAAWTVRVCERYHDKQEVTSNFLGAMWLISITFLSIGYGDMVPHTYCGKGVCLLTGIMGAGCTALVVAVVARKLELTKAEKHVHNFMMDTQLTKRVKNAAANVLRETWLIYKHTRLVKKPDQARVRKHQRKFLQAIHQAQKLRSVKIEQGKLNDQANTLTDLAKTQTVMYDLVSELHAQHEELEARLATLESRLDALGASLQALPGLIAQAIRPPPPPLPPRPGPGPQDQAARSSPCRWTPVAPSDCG
T4 sequence (O15554 whole entry): as the sequence (O15554 whole entry) above
Sequence of hSK1[S348T + A371V]:hIKCa heteromeric channel (O15554 whole entry): as above
Sequence of hSK1[S348T + A371V]:hIKCa heteromeric channel (Q92952 whole entry S330T/A355V): as the sequence (Q92952 whole entry) above, with S330T, A355V counted along it
T3 sequence (O15554 whole entry H389E): as the sequence (O15554 whole entry) above, with H389E counted along it

[Ca+2] [Ca^2+]
activity of heteromeric hSK1:hIKCa channels at 100 nM Ca2+ ([1]; 100 nM Ca2+): inactive
nH for activation of heteromeric hSK1:hIKCa-mediated ramp currents ([1]; inside-out patches): 3.93 ± 0.29
EC50 ([1]; inside-out patches, tsA201 cells, read-out: EC50 for activation of heteromeric hSK1:hIKCa-mediated ramp currents): 613 ± 27.6 nM
activity of homomeric hSK1 channels at 100 nM Ca2+ (hSK1 channel [2]; 100 nM Ca2+): inactive
nH for activation of homomeric hSK1-mediated current (hSK1 channel [2]; inside-out patches): 5.26 ± 0.82
EC50 (hSK1 channel [2]; inside-out patches, tsA201 cells, read-out: EC50 for activation of homomeric hSK1-mediated current): 531 ± 78 nM
activity of homomeric hIKCa channels at 100 nM Ca2+ (hIKCa channel; 100 nM Ca2+): 10%
nH for activation of homomeric hIKCa-mediated ramp currents (hIKCa channel; inside-out patches): 4.10 ± 0.57
EC50 (hIKCa channel; inside-out patches, tsA201 cells, read-out: EC50 for activation of homomeric hIKCa-mediated ramp currents): 409 ± 15.3 nM
EC50 [3]: 560 nM

Clc1ccccc1C(c1ccccc1)(c1ccccc1)n1cccn1 [TRAM‐34, 1‐[(2‐chlorophenyl)diphenylmethyl]‐1H‐pyrazole]
sensitivity of the slow AHP [4]: sensitive
extent of inhibition of heteromeric hSK1:hIKCa current [5]: sub‐maximal inhibition
block of hIKCa[H389E]-mediated current (hIKCa[H389E] channel): 83.7 ± 2.0%
extent of inhibition of homomeric hIKCa-mediated current (hIKCa (WT) channel; [13]): fully inhibited
inhibition at 10 µM (hIKCa (WT) channel; tsA201, TRAM-34 10 μM, read-out: inhibition of hIKCa (WT)-mediated current): 87 ± 2.6%
extent of inhibition of hSK1:hIKCa[H389E] current [6, 13]: only partially inhibited
extent of block of hSK1[S348T + A371V]-mediated current ([7]; TRAM-34 10 μM): fully blocked
effect on wildtype hSK1-mediated current (hSK1 channel [8]): insensitive; also recorded: does not affect
extent of inhibition of hSK1[S348T + A371V]:hIKCa current ([9]; TRAM-34 10 μM): fully sensitive
sensitivity of hSK1:hIKCa channel current [10]: sensitive

[Br-].[Br-].c1cc2cc(c1)C[n+]1ccc(c3ccccc31)NCc1ccc(cc1)CNc1cc[n+](c3ccccc13)C2 [UCL1684, 6,12,19,20,25,26‐hexahydro‐5,27:13,18:21,24‐trietheno‐11,7‐metheno‐7H‐dibenzo [b,n] [1,5,12,16]tetraazacyclotricosine‐5,13‐diium dibromide]
extent of inhibition of homomeric hSK1-mediated current (hSK1 channel [11]; [13]): maximally inhibited
difference in sensitivity between homomeric hSK1-mediated and heteromeric hSK1:hIKCa-mediated current (hSK1 channel [11]; hSK1 versus hSK1:hIKCa): < 200 fold
IC50 (hSK1 channel [11]; outside-out patches, tsA201 cells, maximal inhibition, read-out: IC50 for inhibition of homomeric hSK1-mediated current): 0.783 ± 0.38 nM
extent of inhibition of heteromeric hSK1:hIKCa current [5]: sub‐maximally inhibited
IC50 ([5]; outside-out patches, tsA201 cells, 1 μM free Ca2+, sub-maximal inhibition, read-out: IC50 for inhibition of heteromeric hSK1:hIKCa (WT) current): 236 ± 82 nM
maximal inhibition of hSK1:hIKCa[H389E]-mediated current ([6]; two component concentration-inhibition curve): 50.9 ± 12.5%
nH(a) of the high-sensitivity component [12]: 0.910 ± 0.02
nH(b) of the low-sensitivity component [12]: 0.930 ± 0.1
IC50 ([12]; read-out: IC50(a) of the high-sensitivity component): 0.511 ± 0.0002 nM
IC50 ([12]; read-out: IC50(b) of the low-sensitivity component): 301 ± 84.6 nM

apamin: SK channel inhibitor; negative allosteric inhibitor for SK1–3 channels (CNCKAPETALCARRCQQH; not fully specified (C-terminus, bridges); cysteine pairing not given here; UniProt P01500 28-45, looked up)
sensitivity of the slow AHP [4]: insensitive
effect on current from cells co-expressing wildtype hSK1 and hIKCa ([5]; apamin 100 nM): had no effect
reduction of current amplitude, cells co-expressing hSK1 and hIKCa[H389E] ([6]; apamin 100 nM): 17.3 ± 1.8%
extent of inhibition of hSK1[S348T + A371V] current ([7]; apamin 100 nM): completely inhibited
sensitivity of hSK1[S348T + A371V]:hIKCa current ([9]; apamin 100 nM): insensitive
sensitivity of hSK1:hIKCa channel current [10]: insensitive

charybdotoxin
sensitivity of the slow AHP [4]: sensitive
sensitivity of hSK1:hIKCa channel current [10]: sensitive

— PMC10952195, “A single coiled‐coil domain mutation in hIKCa channel subunits disrupts preferential formation of heteromeric hSK1:hIKCa channels” (The European Journal of Neuroscience, 2023)
